Measurements taken from ChEMBL document CHEMBL1145474, “Selective phosphorylation of antiviral drugs by vaccinia virus thymidine kinase” (Antimicrob Agents Chemother, 2007).

B1: Thymidine kinase (Vaccinia virus (strain Western Reserve) (VACV) (Vaccinia virus (strainWR))), P68563 (protein)
chain: MNGGHIQLIIGPMFSGKSTELIRRVRRYQIAQYKCVTIKYSNDNRYGTGLWTHDKNNFEALEATKLCDVLESITDFSVIGIDEGQFFPDIVEFCERMANEGKIVIVAALDGTFQRKPFNNILNLIPLSEMVVKLTAVCMKCFKEASFSKRLGEETEIEIIGGNDMYQSVCRKCYIDS

Columns and labels:
Human alphaherpesvirus 1 [1] = assay: microbe, parasite or virus in culture; type: functional, organism-based; conditions: Human alphaherpesvirus 1, E377, HFF, 72 h
Human alphaherpesvirus 2 [2] = assay: microbe, parasite or virus in culture; type: functional, organism-based; conditions: Human alphaherpesvirus 2, MS, HFF, 72 h
Human alphaherpesvirus 2 [3] = assay: microbe, parasite or virus in culture; type: functional, organism-based; conditions: Human alphaherpesvirus 2, AG3, HFF, 72 h
Human alphaherpesvirus 1 [4] = assay: microbe, parasite or virus in culture; type: functional, organism-based; conditions: Human alphaherpesvirus 1, DM2.1, HFF, 72 h
Human alphaherpesvirus 3 = assay: microbe, parasite or virus in culture; type: functional, organism-based; conditions: Human alphaherpesvirus 3, Ellen, HFF, 240 h
Cowpox virus [5] = assay: microbe, parasite or virus in culture; type: functional, organism-based; conditions: Brighton, HFF, 1 h
Vaccinia virus = assay: microbe, parasite or virus in culture; type: functional, organism-based; conditions: Orthopoxvirus vaccinia, HFF, 1 h
Cowpox virus [6] = assay: microbe, parasite or virus in culture; type: functional, organism-based; conditions: HFF, 48 h
Cowpox virus [7] = assay: microbe, parasite or virus in culture; type: functional, organism-based; conditions: HFF, 48 h; remark: listed apart in the source
[8] = substrate: O=c1[nH]c(=O)n([C@H]2C[C@H](O)[C@@H](CO)O2)cc1Br; conditions: Orthopoxvirus vaccinia; WR
[9] = substrate: O=c1[nH]cc(C(F)(F)F)c(=O)[nH]1; conditions: Orthopoxvirus vaccinia; WR
[10] = substrate: CCOC(=O)/C(C#N)=C/c1cn([C@H]2C[C@H](O)[C@@H](CO)O2)c(=O)[nH]c1=O; conditions: Orthopoxvirus vaccinia; WR
[11] = substrate: CC1(C)CC(=O)C2=C(C1)OC(N)=C(C#N)C2c1cn([C@H]2C[C@H](O)[C@@H](CO)O2)c(=O)[nH]c1=O; conditions: Orthopoxvirus vaccinia; WR
[12] = substrate: Nc1nc(=O)n([C@@H]2O[C@H](CO)[C@@H](O)[C@@H]2F)cc1I; conditions: Orthopoxvirus vaccinia; WR
[13] = substrate: O=c1[nH]c(=O)n([C@H]2C[C@H](O)[C@@H](CO)O2)cc1F; conditions: Orthopoxvirus vaccinia; WR
[14] = substrate: N#CC(C#N)=Cc1cn([C@H]2C[C@H](O)[C@@H](CO)O2)c(=O)[nH]c1=O; conditions: Orthopoxvirus vaccinia; WR

Molecule	Km (Homo sapiens)	EC50 (Human alphaherpesvirus 1 [1])	EC50 (Human alphaherpesvirus 2 [2])	EC50 (Human alphaherpesvirus 2 [3])	EC50 (Human alphaherpesvirus 1 [4])	EC50 (Human alphaherpesvirus 3)	EC50 (Cowpox virus [5])	EC50 (Vaccinia virus)	EC50 (Cowpox virus [6])	EC50 (Cowpox virus [7])	also measured
O=c1[nH]cc(C(F)(F)F)c(=O)[nH]1	47 µM										
O=c1[nH]c(=O)n([C@H]2C[C@H](O)[C@@H](CO)O2)cc1F	96 µM										
Nc1nc2c(ncn2COCCO)c(=O)[nH]1 [ACYCLOVIR]		1.3 µM	3.1 µM	> 444 µM	> 444 µM	8.5 µM					
Cc1cn([C@H]2C[C@H](O)[C@@H](CO)O2)c(=O)[nH]c1=O	23 µM										
N#CC(C#N)=Cc1cn([C@H]2C[C@H](O)[C@@H](CO)O2)c(=O)[nH]c1=O	113 µM	11 µM	11 µM	12 µM	14 µM	15 µM	21 µM	17 µM	46 µM	1900 nM	
O=c1[nH]c(=O)n([C@@H]2O[C@H](CO)[C@@H](O)[C@@H]2F)cc1I	66 µM										
CC1(C)CC(=O)C2=C(C1)OC(N)=C(C#N)C2c1cn([C@H]2C[C@H](O)[C@@H](CO)O2)c(=O)[nH]c1=O (stereo partly specified)	> 200 µM	7.3 µM	13 µM	14 µM	17 µM	9.2 µM	8.4 µM	7.9 µM	67 µM	3100 nM	
N#CC1=C(N)OC2=C(C(=O)CCC2)C1c1cn([C@H]2C[C@H](O)[C@@H](CO)O2)c(=O)[nH]c1=O (stereo partly specified)		8.6 µM	12 µM	12 µM	13 µM	16 µM	2 µM	4.6 µM	67 µM	1900 nM	
CCOC(=O)/C(C#N)=C/c1cn([C@H]2C[C@H](O)[C@@H](CO)O2)c(=O)[nH]c1=O	118 µM	7.6 µM	8.3 µM	11 µM	16 µM	48 µM	11 µM	18 µM	71 µM	1900 nM	
Nc1ccn(C[C@@H](CO)OCP(=O)(O)O)c(=O)n1 [CIDOFOVIR]							32 µM	11 µM	16 µM	10000 nM	
O=c1[nH]c(=O)n([C@H]2C[C@H](O)[C@@H](CO)O2)cc1Br	46 µM										
Nc1nc(=O)n([C@@H]2O[C@H](CO)[C@@H](O)[C@@H]2F)cc1I	> 135 µM										
O=c1[nH]c(=O)n([C@H]2C[C@H](O)[C@@H](CO)O2)cc1I [IDOXURIDINE]	38 µM						1.8 µM	5.6 µM	76 µM	1100 nM	
B1											Km [8]: 30 µM; Km [9]: 14 µM; Km [10]: 13 µM; Km [11]: 97 µM; Km [12]: > 135 µM; Km [13]: 113 µM; Km [14]: 9.6 µM
